According to article PMC10947197, “Acid‐Resistant BODIPY Amino Acids for Peptide‐Based Fluorescence Imaging of GPR54 Receptors in Pancreatic Islets” (Angewandte Chemie (International Ed. in English), 2023):

Legend:
Format in all cases: physicochemical
Storage stability (HPLC) = conditions: 5 months in freezer (-20 °C), powder and 5 mM DMSO solution
Method: BODIPY PLUS (10 µM) in phosph ate buffer salin e (PBS, white bars) an d phosp hat idy lcho lin e li posom e susp ensi ons (gr ey bars). λ exc: 45 0 nm; λem: 51 0 nm.
V alues pr es ent e d as m ea ns ±S E M ( n= 3) .
Tr p-BODIPY P LU S (-20 °C, solid)
Tr p-BODIPY P LU S (-20 °C, DMSO)
S u p p l emen t ary F i gu re 6 . HP LC tr ac es of T r p-B O DI P Y P LUS aft er 5 m ont hs st or age in t he f r eez er as po wder ( t op) and as 5 mM DMSO s olut i ons ( bot t om ). […]

[1] = Optical properties (absorbance, emission, extinction coefficient)
From the text: Supplementary Figure 3. Det er m inat ion of t he ex t inc t i on c oef f ic i ent of T rp-BO DI PY P LUS in EtOH. V alues pr es ent e d as m eans ±S E M ( n= 6) .
S u p p l emen t ary F i gu re 4 . […]
(also on this page, place not known: 0.0 0.1 0.2 0.3 0.4 0.5 0.6 ε: 87,680 M-1cm-1 R2: 0.98 (µM) Optical density (500 nm) Determination the extinction coefficient Trp-BODIPY Values presented means±SEM (n=6). Wavelength (nm) fluorescence (RFU) Relative Supplementary Figure 4. Representative emission spectra Trp-BODIPY PLUS µM) water (black) and dioxane (green). (n=3).) […]
Sp ectro sco p y mea su rem en ts. O pt ical prop ert ies were me asure d in a Synergy H 1 B ioT ek spect rop hot om et er at t he ind icat ed co ncent rat i ons o n 96 or 38 4-we ll p lat es.
A bs or ba nc e and em is s i on s pec t r a wer e det er m i ned in t he r ange of 400– 700 nm ( ev er y 2 nm). F or liposom e exp erime nt s, phosph at idylc hol ine (P C)-bas ed li posom es wer e pur c has ed f r om Lipos om a, dilut ed in PBS, and t r ans f er r ed int o a blac k f lat -bot t om 96-well pl at e f or opt ical measur ement s. […]
Cel l exp eri men t s. W ork wit h hum an per iph eral b loo d leuk ocyt es comp lie d wit h al l releva nt et hical r egu lat io ns and inf orme d conse nt was obt a ine d. T he st udy prot oco l was approv ed by t he Medica l Regi ona l Et hics Commit t ee ( 21-EMREC - 04 1) at t he Univers ity of Edinb urgh. H uman blo od le ukocytes w ere iso late d from hea lthy volunt e ers. Brief ly, whole b loo d was ant i-c o agu lat ed w it h s odium c it r at e [ 0. 4% ( w/ v ) f inal c onc ent r at io n] and c ent r if ug ed at 350 g for 20 m i n. P lat elet-ric h plasma w as r em ov ed and aut o log ous s er um was ge ner at e d by r ec alc if ic at ion wit h CaC l2 ( 20 m M f inal co ncent rat i on). […] 5 %/ 63%/ 7 2. 9% d is c ont i nuo us gr adi ent s . […] 9 % int er f ac e. […]
HE K29 3 cel l s. Immort alize d huma n embry onic ki dney ce lls HE K 293 w ere gro wn i n DM EM wit hout py r uv at e wit h 4. 5 g L-1 of D-gluc os e, F B S , and penic ill in/ s t r ept om y c i n

[2] = Solubility: linear regression of HPLC peak area in DMSO and PBS; conditions: DMSO and PBS (≤1% DMSO), HPLC-MS with UV detection at 510 nm
Method: S u p p l emen t ary Figure 7. Nor m alized f luoresc ence em is s ion of Trp-BODIPY PLUS ( 50 µ M , buf f er ) at 37° C und er c o nt inu ous l ight ir r adi at ion ( Xe l am p, 20 W ) . λexc: 450 nm; λem: 510 nm . V alues pr es ent e d as m eans ±S D ( n= 6).
Supplementary Figure 8 . Linear r egr es s ions of t he p eak a bs or b anc e ar ea ( m A U) of T rp-BO DI PY PLUS in DMSO (re d) an d PBS (c ont a ini ng ≤ 1% DM S O , bl ue) at d if f er ent c onc ent r at i ons of t he ami no ac id. Valu es wer e det ermi ned by HPLC-MS us ing UV det ec t ion at 51 0 nm . R2 v alues : 0. 99 9 ( r ed) , 0. 99 4 ( blu e) .
(also on this page, place not known: time (min) Normalized photostability Normalized fluorescence emission (50 µM, buffer) 37°C under continuous light irradiation (Xe lamp, W) nm; nm. Values presented means±SD (n=6). µM) Peak area (mAU) DMSO) Supplementary 8. regressions the peak absorbance area (mAU) Trp-BODIPY DMSO (red) and (containing ≤1% DMSO, blue) different concentrations the amino acid. Values were determined using detection 510 nm. values: 0.999 (red), 0.994 (blue).)

Chemical stability on storage (in words) (Storage stability (HPLC)): chemical stability for long‐term storage | Absorbance maximum wavelength [1]: 500 nm | Emission maximum wavelength [1]: 515 nm | Extinction coefficient ([1]; in EtOH, optical density at 500 nm, n=6, fit to Beer's law): 87,680 M-1cm-1 | Solubility (in words) [2]: suitable solubility
SMILES: CC1=CC(C)=[N+]2C1=C(c1cccc(-c3[nH]c4ccccc4c3C[C@H](NC(=O)OCC3c4ccccc4-c4ccccc43)C(=O)O)c1)c1c(C)cc(C)n1[B-]2(C#N)C#N [Trp-BODIPY PLUS]
